One data set concerns REH. Put plainly: MTT cell viability assay, REH. Format: cell-based, human. To be noted: Homo sapiens, 48 hrs. Here is the method: (§1) Human cervical cancer cell lines (HeLa, ME-180 and SiHa), brain tumor cell lines (U87MG, U373MG, U87MG EGFRvIII, T98G, A172 and LN229), lymphoid leukemia (MOLT-3, MOLT-4, REH and CEMC-7), myloid leukemia (K562), pancreatic cancer (MIAPaCa-2, AsPC-1, Panc-1 and Panc 10.05), lung cancer (A549) and colon cancer (HCT116 and SW480) cell lines from American Type Culture Collection, Manassas, Va., USA were grown in IMDM or RPMI (cell specific) Medium supplemented with 10% fetal bovine serum and 1% antibiotic-antimycotic. Cells were cultured in 37° C. in an atmosphere of 5% CO2.
(§2) Viability of cancer cell lines after treatment as at the indicated times was determined by MTT assay. Briefly, 10,000 cells were plated in triplicate in 96 well plates and incubated for 24 and 48 hours in complete media in presence of varying dose of mahanine (0-50 μM). 100 ug MTT was added in each well. Incubate the plate for 1-4 hours at 37° C. and humidified 5% CO2 atmosphere. Absorbance was recorded at 550 nm with 96 well plate readers.
Background: Tetrazolium dyes change colour on reduction, which living cells bring about.

Another data set has as its system U373MG. The experiment in a line: MTT cell viability assay, U373MG. Format: cell-based, human. To be noted: Homo sapiens, U373 MG, 48 hrs. How it is done: as §1, §2
Another data set concerns MIAPaCa-2. Put plainly: MTT cell viability assay, MIAPaCa-2. Format: cell-based, human. To be noted: Homo sapiens, MIA PaCa-2; MIAPaCa-2, 48 hrs. Here is the method:
as §1, §2

The test system of the next data set is AsPC1. Put plainly: MTT cell viability assay, AsPC1. To be noted: Homo sapiens; AsPC1, 48 hrs. In kind it is cell-based, human. Here is the method:
as §1, §2

For another data set, the system named is A549. Put plainly: MTT cell viability assay, A549. In kind it is cell-based, human. To be noted: Homo sapiens; A549, 48 hrs. Here is the method:
as §1, §2

Another data set relates to NCIH23. The experiment in a line: MTT cell viability assay, NCIH23. Format: cell-based, human. To be noted: Homo sapiens, NCI-H23; NCIH23, 48 hrs. Here is the method: as §2
A further data set deals with WI-38. Put plainly: MTT cell viability assay, WI-38 normal cells. In kind it is cell-based, human. How it is done: as §2
The next data set deals with SiHa. Put plainly: MTT cell viability assay, SiHa. Format: cell-based. To be noted: Homo sapiens, 48 hr. Here is the method:
as §1, §2

A further data set relates to ME180. Put plainly: 7-AAD flow cytometric apoptosis, ME180. Format: cell-based, human. Conditions: ME180, 25 μM mahanine. A general note: A flow cytometer gives signals particle by particle.
Another data set relates to Hsp90-Cdc37 complex. Put plainly: Co-immunoprecipitation of Hsp90-Cdc37 complex. In kind it is cell-based, human. How it is done: Different human cancer cells (1×10^6 cells) were incubated with complete medium alone or with different dose of Mahanine (10-20 μM) as indicated. Cells were detached using trypsin-EDTA solution. They were collected by centrifugation at 1500 g for 10 mins and lysed by sonication. Aliquots containing 60 μg total cellular protein were separated by 10% SDS-PAGE and transferred to nitrocellulose membrane (MILIPORE, Bedford, Mass., USA). Membrane was blocked with blocking buffer for 1 hour at room temperature and probed with desired primary antibody Hsp90, Hsp70, Hsp40, p23, HOP, Cdc37, B-Raf, Stat-3, Bcl-xl, Akt, PARP, β-actin (Cell signaling technology, USA) and caspase-3 (Santa Cruz, USA), caspase9, cytochrome c (cell signaling technology, USA) for overnight at 4° C. followed by HRP conjugated secondary antibody and detected by ECL. For the detection of association of the Hsp90-Cdc37, Hsp90-p23 and Hsp90-HOP, total cell lysate (400 μg) was treated with anti-Hsp-90 antibody (1:100 dilutions) and incubated overnight at 4° C. The chaperonic complex was resolved by SDS-PAGE (10%), transferred and probed separately with anti-Cdc37, anti-HOP, anti-p23 and anti-Hsp-90 antibodies. In the few immunoprecipitation experiments anti-Cdc37 used as precipitating antibody and Hsp90 was used as detection antibody. For the proteasomal inhibition assay cells were pretreated with 10 μM MG132 for 1 hr and then cells are exposed in 20 μM mahanine for 24 hrs. For proteasomal inhibition assay at 6 hrs incubation in MIAPaCa-2, cells were pre-incubated with 20 μM MG132 for 1 hr and then cells were exposed in 30 μM mahanine.

In the next data set the target is Hsp90α (Homo sapiens, UniProt P07900). Put plainly: γ-ATP sepharose binding assay, Hsp90α. Conditions: mahanine at 50 and 100 μM. How it is done: 5 μg of purified Hsp90α and Hsp90β were pre-incubated separately on ice with 200 μL incubation buffer (10 mM Tris-Hcl, 50 mM KCl, 5 mM MgCl2, 2 mM DTT, 20 mM Na2MoO4, 0.01% NP40, pH 7.5) containing mahanine or 17-AAG and incubated for 30 mins on ice. After the incubation, 25 μL pre-equilibrated γ-phosphate ATP sepharose added and again incubated at 37° C. with frequent agitation.
Sepharose subsequently washed and analyzed by SDS-PAGE. Then the blot was probed with anti Hsp90 antibody and developed by ECL.

For data set [1], the system named is orthotopic pancreatic tumour. The experiment in a line: Orthotopic pancreatic tumour model. Format: in vivo. To be noted: athymic nude mice.

Each structure is given as a SMILES string. “Also recorded” adds a separate entry of the source.

Usually IC50 stands for the point on the concentration scale where inhibition reaches its midpoint. Read a low IC50 as greater potency in that assay.

Procedure for ME180: U87MG, LN229, HeLa, SiHa and ME180 (1×10^6 cells) cells were cultured in 6-well plates in presence or absence of Mahanine (25 μM) for 24 hrs. Cells were washed in PBS, incubated with 7-Aminoactinomycin D (7-AAD) at 4° C. for 20 min and processed. Data acquisition was done on a FACSCalibur flow cytometer (BD) at excitation wavelength at 488 nm and emission wavelength at 647 nm and analyzed with CellQuestPro software.

With `CC(C)=CCCC1(C)C=Cc2c(c(C)cc3c2[nH]c2cc(O)ccc23)O1` (stereo not drawn) [Mahanine, mahanine], the IC50 turned out to be 11.6 ± 0.7 µM with REH; 16.8 ± 0.6 µM in the data set on U373MG; 13.9 µM in the data set on MIAPaCa-2; 17.2 ± 0.7 µM with AsPC1; 12.8 ± 1.1 µM in the data set with A549; 7.08 ± 0.1 µM in the data set on NCIH23. Moreover, the IC50 with WI-38 (Homo sapiens, WI-38 normal cell line, 48 hrs) is more than 65 µM; in the data set on SiHa, 14.5 µM. The “sensitivity of WI-38 cells” value in the data set with WI-38 (normal human lung fibroblast cells, in vitro) is given as “less sensitive; also recorded: minimum sensitivity”. For the same compound, the “apoptosis (7-AAD+ve cells)” value with ME180 was 80.5%. In addition, the “dose needed to initiate dissociation of Hsp90-Cdc37” value in the data set with Hsp90-Cdc37 complex (HeLa, 24 hr) turned out to be 17.5 µM. For the same compound, the “dose adequate to begin Hsp90-Cdc37 dissociation” value with Hsp90-Cdc37 complex (MIAPaCa2, 24 hr) stood at 12.5 µM. Besides, the “dose showing significant decrease of association of Hsp90-Cdc37 complex” value in the data set on Hsp90-Cdc37 complex (U87MG, 24 hr) was determined as 15 µM. Moreover, at Hsp90α, the “effect on ATP binding to purified Hsp90” value is “could not reduce”. For the same compound, the “orthotopic pancreatic tumour growth” value in data set [1] is reported as “tumour growth inhibition”.

The values are drawn from US8637679B2, “Process for the isolation of organic compounds useful for the treatment of cancer” (Council of Scientific and Industrial Research, priority 2011, dated 2014).
